Measured values as given in patent US8492414B2, “Antibacterial agents” (Biota Scientific Management Pty Ltd, priority 2007, dated 2013).
In brackets after ≈: the same amount, converted by molar mass.

Test system: Staphylococcus aureus ATCC29213
Assay: Minimum Inhibitory Concentration (MIC) testing, broth microdilution or agar dilution
Assay type: cell-based
Conditions: MIC scored A/B/C, read-out: Staphylococcus aureus MICs, Activity
Method: Minimum Inhibitory Concentration (MIC) Testing Compounds of this invention were tested for antimicrobial activity by susceptibility testing in liquid or on solid media. […] Activities were scored as ‘A’ if the MIC was ≦[…] micrograms/ml, ‘B’ if the MIC was 0.25 to 4 micrograms/ml and ‘C’ if the MIC was greater than 4 micrograms/ml.

Row | SMILES | MIC [µg/mL]
1 | NC(=O)c1c(F)ccc(OCc2nc(-c3ccc(O)cc3)ns2)c1F [Example 4, 2,6-Difluoro-3-[3-(4-hydroxyphenyl)-[1,2,4]thiadiazol-5-ylmethoxy]-benzamide] | 0.25 to 4 (≈ 0.688 to 11 µM)
2 | COc1cc(Cl)ccc1-c1nsc(COc2ccc(F)c(C(N)=O)c2F)n1 [Example 5, 3-((3-(4-chloro-2-methoxyphenyl)-1,2,4-thiadiazol-5-yl)methoxy)-2,6-difluorobenzamide] | 0.25 to 4 (≈ 0.607 to 9.71 µM)
3 | NC(=O)c1c(F)ccc(OCc2nc(-c3ccc(Cl)cc3OCc3ccccc3)ns2)c1F [Example 6, 3-((3-(2-(Benzyloxy)-4-chlorophenyl)-1,2,4-thiadiazol-5-yl)methoxy)-2,6-difluorobenzamide] | 0.25 to 4 (≈ 0.512 to 8.2 µM)
4 | NC(=O)c1c(F)ccc(OCc2nc(-c3ccc(Cl)cc3O)ns2)c1F [Example 7, 3-((3-(4-chloro-2-hydroxyphenyl)-1,2,4-thiadiazol-5-yl)methoxy)-2,6-difluorobenzamide] | ≤ 1.12

More lines, now with the values ahead:

Row | MIC [µg/mL] | SMILES
5 | ≤ 1.12 | NC(=O)c1c(F)ccc(OCc2nc(-c3ccc(Cl)cc3)ns2)c1F [Example 1, 3-[3-(4-Chlorophenyl)-[1,2,4]thiadiazol-5-ylmethoxy]-2,6-difluorobenzamide]
6 | ≤ 1.12 | COc1ccc(-c2nsc(COc3ccc(F)c(C(N)=O)c3F)n2)cc1 [Example 2, 2,6-Difluoro-3-[3-(4-methoxyphenyl)-[1,2,4]thiadiazol-5-ylmethoxy]-benzamide]
7 | ≤ 1.12 | NC(=O)c1c(F)ccc(OCc2nc(-c3ccc(OC(F)(F)F)cc3)ns2)c1F [Example 3, 2,6-Difluoro-3-[3-(4-trifluoromethoxyphenyl)-[1,2,4]thiadiazol-5-ylmethoxy]-benzamide]
